# Experimental data taken from BindingDB's records for doi:10.1021/jm00081a007 (Ohio State University, 1992).
# Key:
# [1] = Inhibitory activity against U-46,619-induced responses in human platelet aggregation (Thromboxane A2 alpha receptor)
# Thromboxane A2 receptor = molecular target: T1, Thromboxane A2 receptor (Homo sapiens, UniProt P21731); assay: ChEBML_209427
# T1 sequence (P21731 whole entry): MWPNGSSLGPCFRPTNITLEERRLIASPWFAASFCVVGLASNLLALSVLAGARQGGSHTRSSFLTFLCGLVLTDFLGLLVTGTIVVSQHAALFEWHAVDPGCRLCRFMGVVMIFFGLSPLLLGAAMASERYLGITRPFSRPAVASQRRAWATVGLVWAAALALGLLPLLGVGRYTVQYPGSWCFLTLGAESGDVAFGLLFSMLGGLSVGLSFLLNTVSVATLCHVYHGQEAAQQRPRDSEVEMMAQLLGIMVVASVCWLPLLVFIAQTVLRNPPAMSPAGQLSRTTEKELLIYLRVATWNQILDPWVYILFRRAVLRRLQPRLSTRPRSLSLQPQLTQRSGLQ
# From the text: Inhibitory activity against U-46,619-induced responses in human platelet aggregation (Thromboxane A2 alpha receptor)
IC50 [1] [µM],IC50 (Thromboxane A2 receptor) [µM],Compound
,120,"COc1cc(CC2NCCc3c2cc(O)c(O)c3I)cc(OC)c1OC (stereo unspecified) [TMQ, 5-Iodo]"
2.46,,"COc1cc(C[C@H]2NCCc3cc(O)c(O)c(F)c32)cc(OC)c1OC [TMQ, R-(-)-8-Fluoro]"
,832,"COc1cc(CC2NCCc3c2cc(O)c(O)c3C(F)(F)F)cc(OC)c1OC (stereo unspecified) [TMQ, 5-TrifluoroMe]"

# Second part, the compound before the results:
Compound,IC50 [1] [µM],IC50 (Thromboxane A2 receptor) [µM]
"COc1cc(C[C@@H]2NCCc3cc(O)c(O)c(F)c32)cc(OC)c1OC [TMQ, S-(+)-8-Fluoro]",39.8,
"COc1cc(CC2NCCc3c(F)c(O)c(O)c(F)c32)cc(OC)c1OC (stereo unspecified) [TMQ, 5,8-Difluoro]",,158
"COc1cc(CC2NCCc3cc(O)c(O)c(I)c32)cc(OC)c1OC (stereo unspecified) [TMQ, 8-Iodo]",,3.09
